Results on 25 compounds are retold here after BindingDB's records for doi:10.7270/Q2NS0S8J (University of Pittsburgh, 2007).

Molecules are shown by their SMILES. pIC50: −log10 of the molar value.

For this assay, the target named is T1, M-phase inducer phosphatase 2 (Homo sapiens, UniProt P30305).
T1 sequence (P30305 whole entry): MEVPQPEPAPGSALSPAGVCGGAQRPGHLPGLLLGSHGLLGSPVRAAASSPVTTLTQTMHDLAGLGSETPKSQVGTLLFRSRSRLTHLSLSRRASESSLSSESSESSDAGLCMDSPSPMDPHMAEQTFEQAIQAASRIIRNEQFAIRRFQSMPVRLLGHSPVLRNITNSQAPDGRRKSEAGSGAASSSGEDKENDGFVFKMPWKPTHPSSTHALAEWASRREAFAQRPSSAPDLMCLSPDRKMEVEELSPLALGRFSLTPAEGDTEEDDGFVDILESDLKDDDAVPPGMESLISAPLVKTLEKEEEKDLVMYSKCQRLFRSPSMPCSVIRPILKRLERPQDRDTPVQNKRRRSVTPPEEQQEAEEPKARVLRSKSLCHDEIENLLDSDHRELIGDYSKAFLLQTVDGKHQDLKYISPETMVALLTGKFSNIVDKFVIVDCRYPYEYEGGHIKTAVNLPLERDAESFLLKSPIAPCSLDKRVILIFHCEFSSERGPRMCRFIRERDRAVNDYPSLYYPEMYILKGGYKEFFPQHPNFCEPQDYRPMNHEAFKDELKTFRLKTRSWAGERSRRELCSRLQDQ
The assay can be described thus: Cdc25B phosphatase blockers with beta-mercaptoethanol – biochemical, beta-mercaptoethanol present, catalytic domain, IC50, Cdc25B inhibitor project, late-stage follow-up (AID 670).
Compound `Cc1ccccc1Nc1cc2ccccc2c(O)n1` [3-[(2-methylphenyl)amino]-2H-isoquinolin-1-one] showed a pIC50 of less than 4.30.
The value for `c1ccc(CSc2nnc(-c3ccco3)c(-c3ccco3)n2)cc1` [MLS-0029114.0001] was 4.99.
In turn, `N#Cc1c(N2CCCC2)nc(N)c2c(N)nc(N3CCCC3)cc12` [SMR000061605] had a pIC50 of less than 4.30.
To `CCn1nc(-c2cccs2)nc2c(=O)n(C)c(=O)nc1-2` [1-ethyl-6-methyl-3-thiophen-2-yl-pyrimido[5,4-e][1,2,4]triazine-5,7-dione] belongs 4.38; to `[O-]/[N+](=C\c1ccc(OC(F)F)cc1)c1ccccc1` [1-[4-(difluoromethoxy)phenyl]-N-phenylmethanimine oxide], less than 4.30; to `CCOc1ccc2noc3c2c1C(=O)c1ccccc1-3` [MLS000106837], less than 4.30.
The value for `Cc1ccc2c(c1)C1C=CCC1C(C(=O)O)N2` (stereo not given) [MLS-0067149.0001] was 5.28; that for `O=C1Cc2ccccc2C(=O)N1CCc1ccccc1` [2-(2-phenylethyl)-4H-isoquinoline-1,3-dione] was less than 4.30.
`O=C(O)C1Nc2c(O)cccc2C2C=CCC12` (stereo not given) had a pIC50 of 5.13.
In turn, `Cc1c(N=c2c(=O)c3ccccc3c2=O)c(=O)n(-c2ccccc2)n1C` [MLS000105950] had a pIC50 of less than 4.30.
The value for `O=C1C=Cc2ccccc2C1=O` [1,2-dihydronaphthalene-1,2-dione] was 4.69; that for `O=C(NC1(O)C(=O)c2ccccc2C1=O)c1ccccc1` [N-(2-hydroxy-1,3-dioxo-2-indenyl)benzamide] was less than 4.30; that for `Oc1nc(Nc2ccccc2)cc2ccccc12` [MLS000043701] was less than 4.30.
On to `Nc1cccc2cnccc12` [isoquinolin-5-amine], for which the pIC50 is less than 4.30.
Compound `COc1cccc2c(C)c(C(=O)O)[nH]c12` gave a negative logarithm of the IC50 (pIC50) of 5.20.
To `COc1ccc(Br)cc1C=c1sc2nc(-c3ccco3)nn2c1=O` [5-[(5-bromanyl-2-methoxy-phenyl)methylidene]-2-(furan-2-yl)-[1,3]thiazolo[3,2-b][1,2,4]triazol-6-one] belongs 5.75; to `O=C(Nc1ccc2nc(-c3ccco3)c(-c3ccco3)nc2c1)N1CCCCCC1`, 4.72.
The value for `CC(=O)Nc1cc(OC(C)=O)c2nonc2c1OC(C)=O` [Acetic acid 7-acetoxy-5-acetylamino-benzo[1,2,5]oxadiazol-4-yl ester] was less than 4.30.
The value for `Cc1ccc2c(c1C)NC(C(=O)O)C1CC=CC21` (stereo not given) was 5.38; that for `Cn1ncnc2c(=O)n(C)c(=O)nc1-2` was 4.49; that for `CCn1nc(-c2ccccc2)nc2c(=O)n(C)c(=O)nc1-2` [1-Ethyl-6-methyl-3-phenyl-1H-pyrimido[5,4-e][1,2,4]triazine-5,7-dione] was less than 4.30.
With `N#Cc1c(N)sc(=S)c2c1CCN(Cc1ccccc1)C2` [3-Amino-7-benzyl-1-thioxo-5,6,7,8-tetrahydro-1H-thiopyrano[3,4-c]pyridine-4-carbonitrile], the pIC50 is 4.48.
To `COc1ccc2noc3c2c1C(=O)c1ccccc1-3` [MLS000106874] belongs less than 4.30; to `[O-]/[N+](=C\c1ccncc1)c1ccccc1`, less than 4.30; to `CCOC(=O)C(C(=O)OCC)c1cc(Br)c2noc3c2c1C(=O)c1ccccc1-3` [MLS000038842], less than 4.30.

The pIC50 is the IC50 on a negative log10 scale, so that one unit is a factor of ten. The low end stands for a large IC50, the high end for a small IC50.
